Four compounds from PubChem BioAssay (NCI) can be followed below.

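Each compound was tested at five concentrations against cells in 96-well plates for 48 hours. TGI marks complete inhibition of growth.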

One assay deals with SK-MEL-2 melanoma. The experiment in a line: NCI anticancer screen, dose series, 48 h.
The compound `CC(=O)OCC(C)C1=C(O)C(=O)C2(C)C/C=C(/C)CC/C=C(\C)CCC(O)C(C)CCC12` (stereo not drawn) returned a TGI of 39.3 µM.
For the compound `CC(C)OP(=O)(OC(C)C)c1c(Nc2ccccc2)n[nH]c1N`, the TGI was more than 100 µM.
For `CC(C)(C)C1=C(Br)C(Br)(C(C)(C)C)OP1(=O)c1ccccc1` (stereo not drawn), the TGI was more than 100 µM.
In the case of `CC1(C)OCC(COC(=O)C=[N+]=[N-])O1` (stereo not drawn), the TGI is more than 100 µM.

The test system of a further assay is HT29 colon. As to the kind of experiment: NCI anticancer screen, dose series, 48 h.
`CC(=O)OCC(C)C1=C(O)C(=O)C2(C)C/C=C(/C)CC/C=C(\C)CCC(O)C(C)CCC12` (stereo not drawn) yielded a TGI of 33.3 µM.
In turn, `CC(C)OP(=O)(OC(C)C)c1c(Nc2ccccc2)n[nH]c1N` had a TGI of more than 100 µM.
`CC(C)(C)C1=C(Br)C(Br)(C(C)(C)C)OP1(=O)c1ccccc1` (stereo not drawn) came in with a TGI of more than 100 µM.
Compound `CC1(C)OCC(COC(=O)C=[N+]=[N-])O1` (stereo not drawn) returned a TGI of more than 100 µM.

A further assay has as its system MDA-N. As to the kind of experiment: NCI anticancer screen, dose series, 48 h.
Regarding `CC(=O)OCC(C)C1=C(O)C(=O)C2(C)C/C=C(/C)CC/C=C(\C)CCC(O)C(C)CCC12` (stereo not drawn), the TGI was 33.6 µM.
As for `CC(C)OP(=O)(OC(C)C)c1c(Nc2ccccc2)n[nH]c1N`, the TGI was more than 100 µM.
Still for that read-out and setting: to `CC(C)(C)C1=C(Br)C(Br)(C(C)(C)C)OP1(=O)c1ccccc1` (stereo not drawn) belongs more than 100 µM; to `CC1(C)OCC(COC(=O)C=[N+]=[N-])O1` (stereo not drawn), more than 100 µM.

Another assay has as its system NCI/ADR-RES ovarian. The experiment in a line: NCI anticancer screen, dose series, 48 h.
Compound `CC(=O)OCC(C)C1=C(O)C(=O)C2(C)C/C=C(/C)CC/C=C(\C)CCC(O)C(C)CCC12` (stereo not drawn) yielded a TGI of 44 µM.
The compound `CC(C)OP(=O)(OC(C)C)c1c(Nc2ccccc2)n[nH]c1N` yielded a TGI of more than 100 µM.
As for `CC(C)(C)C1=C(Br)C(Br)(C(C)(C)C)OP1(=O)c1ccccc1` (stereo not drawn), the TGI was more than 100 µM.

For another assay, the system named is SNB-19 CNS. As to the kind of experiment: NCI anticancer screen, dose series, 48 h.
On to `CC(=O)OCC(C)C1=C(O)C(=O)C2(C)C/C=C(/C)CC/C=C(\C)CCC(O)C(C)CCC12` (stereo not drawn), for which the TGI turned out to be 33.9 µM.
For `CC(C)OP(=O)(OC(C)C)c1c(Nc2ccccc2)n[nH]c1N`, the TGI was more than 100 µM.
Still for that read-out and setting: the same measure for `CC(C)(C)C1=C(Br)C(Br)(C(C)(C)C)OP1(=O)c1ccccc1` (stereo not drawn): more than 100 µM; for `CC1(C)OCC(COC(=O)C=[N+]=[N-])O1` (stereo not drawn): more than 100 µM.

In a further assay the test system is HCT-116 colon. As to the kind of experiment: NCI anticancer screen, dose series, 48 h.
Turning to `CC(=O)OCC(C)C1=C(O)C(=O)C2(C)C/C=C(/C)CC/C=C(\C)CCC(O)C(C)CCC12` (stereo not drawn), the TGI was 32.8 µM.
As for `CC(C)(C)C1=C(Br)C(Br)(C(C)(C)C)OP1(=O)c1ccccc1` (stereo not drawn), the TGI was more than 100 µM.
In turn, `CC1(C)OCC(COC(=O)C=[N+]=[N-])O1` (stereo not drawn) yielded a TGI of more than 100 µM.

The test system of another assay is SF-268 CNS. The experiment in a line: NCI anticancer screen, dose series, 48 h.
In turn, `CC(=O)OCC(C)C1=C(O)C(=O)C2(C)C/C=C(/C)CC/C=C(\C)CCC(O)C(C)CCC12` (stereo not drawn) yielded a TGI of 35.4 µM.
The same measure, in the same setting: to `CC(C)OP(=O)(OC(C)C)c1c(Nc2ccccc2)n[nH]c1N` belongs more than 100 µM; to `CC(C)(C)C1=C(Br)C(Br)(C(C)(C)C)OP1(=O)c1ccccc1` (stereo not drawn), more than 100 µM; to `CC1(C)OCC(COC(=O)C=[N+]=[N-])O1` (stereo not drawn), more than 100 µM.

The subject of another assay is MCF7 breast. As to the kind of experiment: NCI anticancer screen, dose series, 48 h.
For `CC(=O)OCC(C)C1=C(O)C(=O)C2(C)C/C=C(/C)CC/C=C(\C)CCC(O)C(C)CCC12` (stereo not drawn), the TGI came to 44.2 µM.
Regarding `CC(C)OP(=O)(OC(C)C)c1c(Nc2ccccc2)n[nH]c1N`, the TGI was more than 100 µM.
Still for that read-out and setting: to `CC(C)(C)C1=C(Br)C(Br)(C(C)(C)C)OP1(=O)c1ccccc1` (stereo not drawn) belongs more than 100 µM; to `CC1(C)OCC(COC(=O)C=[N+]=[N-])O1` (stereo not drawn), more than 100 µM.

Another assay deals with SN12C renal. As to the kind of experiment: NCI anticancer screen, dose series, 48 h.
In turn, `CC(=O)OCC(C)C1=C(O)C(=O)C2(C)C/C=C(/C)CC/C=C(\C)CCC(O)C(C)CCC12` (stereo not drawn) showed a TGI of 34.1 µM.
As to `CC(C)(C)C1=C(Br)C(Br)(C(C)(C)C)OP1(=O)c1ccccc1` (stereo not drawn), the TGI was more than 100 µM.
For the compound `CC1(C)OCC(COC(=O)C=[N+]=[N-])O1` (stereo not drawn), the TGI was more than 100 µM.

For the next assay, the system named is CAKI-1 renal. The experiment in a line: NCI anticancer screen, dose series, 48 h.
In turn, `CC(=O)OCC(C)C1=C(O)C(=O)C2(C)C/C=C(/C)CC/C=C(\C)CCC(O)C(C)CCC12` (stereo not drawn) returned a TGI of 35.5 µM.
The same measure, in the same setting: to `CC(C)OP(=O)(OC(C)C)c1c(Nc2ccccc2)n[nH]c1N` belongs more than 100 µM.
For the compound `CC(C)(C)C1=C(Br)C(Br)(C(C)(C)C)OP1(=O)c1ccccc1` (stereo not drawn), the TGI was more than 100 µM.
Take `CC1(C)OCC(COC(=O)C=[N+]=[N-])O1` (stereo not drawn): the TGI is more than 100 µM.

In another assay the test system is UACC-257 melanoma. The experiment in a line: NCI anticancer screen, dose series, 48 h.
`CC(=O)OCC(C)C1=C(O)C(=O)C2(C)C/C=C(/C)CC/C=C(\C)CCC(O)C(C)CCC12` (stereo not drawn) came in with a TGI of 33.6 µM.
`CC(C)OP(=O)(OC(C)C)c1c(Nc2ccccc2)n[nH]c1N`: the TGI was more than 100 µM.
For the compound `CC(C)(C)C1=C(Br)C(Br)(C(C)(C)C)OP1(=O)c1ccccc1` (stereo not drawn), the TGI is more than 100 µM.
On the same count and under the same terms, to `CC1(C)OCC(COC(=O)C=[N+]=[N-])O1` (stereo not drawn) belongs more than 100 µM.

The test system of a further assay is NCI-H23 lung. As to the kind of experiment: NCI anticancer screen, dose series, 48 h.
As to `CC(=O)OCC(C)C1=C(O)C(=O)C2(C)C/C=C(/C)CC/C=C(\C)CCC(O)C(C)CCC12` (stereo not drawn), the TGI was 36.6 µM.
Take `CC(C)OP(=O)(OC(C)C)c1c(Nc2ccccc2)n[nH]c1N`: the TGI was more than 100 µM.
The same measure, in the same setting: the same measure for `CC(C)(C)C1=C(Br)C(Br)(C(C)(C)C)OP1(=O)c1ccccc1` (stereo not drawn): more than 100 µM; for `CC1(C)OCC(COC(=O)C=[N+]=[N-])O1` (stereo not drawn): more than 100 µM.

The next assay deals with OVCAR-5 ovarian. The experiment in a line: NCI anticancer screen, dose series, 48 h.
As to `CC(=O)OCC(C)C1=C(O)C(=O)C2(C)C/C=C(/C)CC/C=C(\C)CCC(O)C(C)CCC12` (stereo not drawn), the TGI came to 31.6 µM.
Consider `CC(C)OP(=O)(OC(C)C)c1c(Nc2ccccc2)n[nH]c1N`, for which the TGI is more than 100 µM.
Compound `CC(C)(C)C1=C(Br)C(Br)(C(C)(C)C)OP1(=O)c1ccccc1` (stereo not drawn) displayed a TGI of more than 100 µM.
In turn, `CC1(C)OCC(COC(=O)C=[N+]=[N-])O1` (stereo not drawn) returned a TGI of more than 100 µM.

In the next assay the test system is HOP-92 NSCLC. The experiment in a line: NCI anticancer screen, dose series, 48 h.
For the compound `CC(=O)OCC(C)C1=C(O)C(=O)C2(C)C/C=C(/C)CC/C=C(\C)CCC(O)C(C)CCC12` (stereo not drawn), the TGI was found to be 33.7 µM.
Same read-out and setting: to `CC(C)OP(=O)(OC(C)C)c1c(Nc2ccccc2)n[nH]c1N` belongs more than 100 µM; to `CC(C)(C)C1=C(Br)C(Br)(C(C)(C)C)OP1(=O)c1ccccc1` (stereo not drawn), more than 100 µM.
`CC1(C)OCC(COC(=O)C=[N+]=[N-])O1` (stereo not drawn): the TGI was more than 100 µM.
